Patent publication US20140135327A1, “N- (2 -AMINOPHENYL) BENZAMIDE DERIVATIVES AS HISTONE DEACETYLASE INHIBITORS” (CANCER RESEARCH TECHNOLOGY LIMITED, priority 2011, published 2014)
pIC50: −log10 of the molar value.

How the values were obtained:
[1] = biological target: T1, HDAC 8 (Homo sapiens, UniProt Q9BY41); experiment: Fluorescence-based HDAC isoform assay with electrophoretic separation, HDAC 8; type: biochemical; details: isolated 6×His-tagged isoform, 1 μM FAM-labeled acetylated peptide, 17 h at 25° C.
T1 construct: HDACs 1, 2, 3, 6, and 8 were expressed as full length fusion proteins; 6xHis; made in house; host or cells: Sf9 cells (baculovirus)
T1 sequence (Q9BY41 1-377): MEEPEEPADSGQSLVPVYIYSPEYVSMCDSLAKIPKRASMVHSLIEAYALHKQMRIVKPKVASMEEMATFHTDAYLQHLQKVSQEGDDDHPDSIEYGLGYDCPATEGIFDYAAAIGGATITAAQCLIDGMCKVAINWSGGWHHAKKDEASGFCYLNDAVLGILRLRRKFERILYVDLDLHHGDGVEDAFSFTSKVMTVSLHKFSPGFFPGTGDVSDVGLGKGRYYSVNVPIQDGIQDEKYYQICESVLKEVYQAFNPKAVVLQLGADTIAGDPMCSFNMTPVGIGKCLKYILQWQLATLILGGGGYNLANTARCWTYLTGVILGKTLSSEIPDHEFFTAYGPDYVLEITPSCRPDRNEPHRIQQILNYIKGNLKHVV
Description: The inhibitory effects of the compounds of Examples 7 and 9 above on HDAC activity were determined using a fluorescence-based assay with electrophoretic separation of substrate and product carried out using a microfluidic system followed by quantitation of fluorescence intensity in the substrate and product peaks.
The assays were performed using isolated HDAC isoforms that had been expressed as 6×His-tagged fusion proteins in a baculovirus expression system in Sf9 cells. HDACs 1, 2, 3, 6, and 8 were expressed as full length fusion proteins. For HDAC-4 and 7 only catalytic domains were expressed (HDAC-4 CAT and HDAC-7 CAT). The HDAC10 fusion protein was expressed as a carboxy-terminal deletion of 38 amino acids (residues 632-669). HDAC3 was coexpressed with a fragment of the SMRT gene (residues 395-489) to generate enzymatically active protein. Purified proteins were incubated with 1 μM carboxyfluorescein (FAM)-labeled acetylated peptide substrate and test compound for 17 h at 25° C. in HDAC assay buffer containing 100 mM HEPES (pH 7.5), 25 mM KCl, 0.1% BSA, and 0.01% Triton X-100. […] Substrate and product were separated electrophoretically using a Caliper LabChip 3000 system with blue laser excitation and green fluorescence detection (CCD2). The fluorescence intensity in the substrate and product peaks was determined using the Well Analyzer software on the Caliper system. […]

[2] = tested on: HL60 cells; experiment: MTS assay, growth inhibition in HL60 cells; type: cell-based; details: after 3 days (FIG. 2(i) legend: 4 day), absorbance 490 nm relative to untreated cells
Description: (§1) HL60 or NB4 cells were diluted in complete growth medium and plated at a density of 5000 cells per 0.1 ml in wells of a 96 well plate. Cells were then treated with various concentrations of the compound of Example 7 (MI-192) or were left untreated as a control in a total volume of 0.2 ml of complete growth medium. After 3 days, relative cell numbers were determined using the MTS assay, as described by the manufacturer (Promega, Southampton, UK). The results shown in FIG. 2(i) are absorbance (490 nm) relative to control cells (untreated cells 100%).

[3] = tested on: NB4 cells; experiment: MTS assay, growth inhibition in NB4 cells; type: cell-based; details: after 3 days (FIG. 2(i) legend: 4 day), absorbance 490 nm relative to untreated cells
Description: as §1

[4] = tested on: HL60 cells; experiment: CD11b flow cytometry, differentiation in HL60 cells; type: cell-based; details: 3 days
Description: HL60 cells were cultured at 0.5×10^6 cells/ml in complete growth medium. Cells (2 ml) were then treated with ATRA (sourced commercially), the compound of Example 7 (MI-192), or left untreated as controls. After 3 days, CD11b expression was determined by flow cytometry using a PE-conjugated anti-CD11b monoclonal antibody.

[5] = tested on: CYP26 RNA expression in HL60 cells; experiment: CYP26 RNA expression in HL60 cells (Q-RT-PCR); type: cell-based
Description: (§2) HL60 or NB4 cells were cultured at 1.0×10^6 cells/ml in complete growth medium. Cells (10 ml) were then treated with ATRA, the compound of Example 7(MI-192), or left untreated as controls. After 1 day, the expression of CYP26 and BACT RNAs were determined using quantitative PCR (Taqman). The expression of CYP26 RNA was normalised to BACT, and expression in control cells was set to 1.0.

[6] = tested on: CYP26 RNA expression in NB4 cells; experiment: CYP26 RNA expression in NB4 cells (Q-RT-PCR); type: cell-based; details: 1 day, normalised to BACT, control set to 1.0
Description: as §2

| pIC50 [1] | melting point [°C] | Compound | growth inhibition (MTS assay) [2] | growth inhibition (MTS assay) [3] | differentiation (CD11b expression, flow cytometry) [4] | transcription modulating activity compared with ATRA [5] | CYP26 RNA expression ([5]; 1 day, Q-RT-PCR, normalised to BACT, control set to 1.0) | CYP26 RNA expression [6] |
| --- | --- | --- | --- | --- | --- | --- | --- | --- |
| < 4.52 | – | C=C1CN(Cc2ccc(C(=O)Nc3ccccc3N)cc2)C(=O)c2ccccc21 [Example 7, N-(2-Aminophenyl)-4-[(4-methylene-1-oxo-3,4-dihydroisoquino-2(1H)-yl)methyl]benzamide] | promotes growth inhibition | promotes growth inhibition | promotes growth inhibition and differentiation | exceeded that of ATRA | induces expression of CYP26 | induces expression of CYP26 |
| < 4.52 | > 230 | C=C1CN(Cc2ccc(C(=O)Nc3ccccc3N)cc2)C(CC(=O)O)c2ccccc21 (stereo not drawn) [Example 9, [2-(4-{[(2-Aminophenyl)amino]carbonyl}benzyl)-4-methylene-1,2,3,4-tetra hydroisoquinolin-1-yl]acetic acid] | – | – | – | – | – | – |
